According to patent publication US20230003721A1, “MITOTHERAPEUTICS FOR THE TREATMENT OF BRAIN DISORDERS” (The University of Florida Research Foundation, Inc., priority 2019, published 2023):
Structures can show the parent of a compound that is named as a salt. Where two headings read alike, the source gives them in different places.

What was measured:
[1] = system: primary forebrain neurons; experiment: cells; conditions: for EC50: Mus musculus, Neuron; for EC50 / Dendritic Mt CA / Neurite Area: 24 h; for Dendritic Mt CA / Neurite Area: rescreen, 12.5 μM, vs DMSO wells
Procedure: Primary forebrain cell culture and maintenance. Forebrains of P0 Mt or Mt/Ai14 pups without olfactory bulbs and meninges were collected and placed in ice cold Ca^2+ and Mg^2+ free HBSS supplemented with 2 μg/ml gentamicin, 25 mM D-glucose, 1 mM pyruvate and 20 mM HEPES. Brain tissue was digested with 0.6 mg/ml papain at 37° C. for 20 min. Forebrains were washed with plating media [Neurobasal (Gibco), 5% FBS, 4 mM GlutaMAX (Gibco), 2 μg/ml gentamicin]. The tissue was gently triturated, allowed to settle and the supernatant was filtered through a 40 μm mesh-sized cell strainer. Cells were centrifuged at 420×g for 4 min and resuspended in plating media. 15,000 cells per well were plated with 2×10^8 viral particles/ml onto black Greiner μClear (Cat #781946) or Ultra-Low Base Aurora with evaporation barrier (Cat #ABE201201B) 384-well plates (80 μl/well) pre-coated with poly-D-lysine for the primary screen and rescreen, respectively. Plating and media changes were performed using an automated Biomek FX^P liquid handling workstation. Four hr after plating, 75% of the plating media was replaced by feeding media [Neurobasal-A (Gibco), 4 mM GlutaMAX (Gibco), 2 μg/ml gentamicin, 2% B27 (Gibco)]. At DIV4, 50% of the media was exchanged with fresh feeding media supplemented with 16 μM 5-Fluoro-2′-deoxyuridine (FUdR) to prevent glial cell over-growth. At DIV8 and DIV12, additional 50% media changes were made without FUdR. Cells were maintained at 37° C. and 5% CO2; plates were topped with Breathe-Easy adhesive membranes (Greiner plates) to minimize evaporation.
Compounds and compound transfer.
Imaging. Images were captured using a GE Incell 6000 system (60× objective, 0.95 NA, 16-bit images) equipped with environmental control (37° C., 5% CO2). Mt-GFP (green channel) was imaged by confocal imaging (3 slices, Δz=0.7 μm, aperture=1.0 AU, λexc=488 nm, λem=515-535 nm). Cyto-tdTomato (red channel) and MitoTracker Orange (red channel) were imaged using confocal mode (3 slices, Δz=0.7 μm, aperture=1.0 AU, λexc=561 nm, λem=569-641 nm, MitoTracker Orange) or with widefield mode (Cyto-tdTomato). TMRM imaged for the co-localization experiments with Mt-GFP was imaged using the confocal mode (3 slices, […] aperture=1.0, λexc=488, λem=569-641 nm). For the live-dead assay, primary neurons were imaged with a 20× (widefield mode, NA 0.45) objective using λexc=561 nm and λem=569-641 nm for the propidium iodide stained dead cells (red channel), and λexc=488 nm and λem=515-535 nm for the fluorescein diacetate stained live cells (green channel). 10 fields were collected from each well, and 4 wells were imaged/condition in the live-dead assay. For all other experiments, 4 fields/well were imaged unless otherwise stated.
Automated data analysis pipeline. Most experiments utilized only Mt-GFP; some utilized both Mt-GFP and Cyto-tdTomato. The Z-projected images were preprocessed using a custom Fiji macro. For preprocessing of Mt-GFP images: background was subtracted (rolling ball, radius=3), images were median filtered (radius=1) and somatic mitochondria were removed. For removal of the somatic mitochondria, they were first segmented and then a somatic mitochondrial mask overlaid on the image.

primary neurons [2] = experiment: TMRM fluorescence assay of inner mitochondrial membrane potential (ΔΨm); conditions: for Emax / EC50: Mus musculus, Primary neuron; for Emax: read-out: TMRM (Effect-size); for EC50: read-out: TMRM-EC50; for TMRM Primary: primary screen; for TMRM Primary / TMRM Rescreen: 24 h
primary neurons [3] = experiment: CellTiter-Glo luminescence-based ATP assay; assay type: cell-based, mouse; conditions: for ATP: ATP orthogonal screen, 24 h; for EC50 / Emax: Mus musculus, Primary neuron, dose response; for EC50: 15 concentrations from 6 nM to 100 uM; for Emax: maximal percent increase relative to in-plate DMSO controls, read-out: ATP (Effect-size)
In short: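 Primary neurons treated from DIV13 for 24 h with compound or DMSO. After part of the medium was removed, CellTiter-Glo reagent was added; plates were shaken 10 min at 200 rpm, kept 2 min in the dark at room temperature, and luminescence read as total ATP.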

[4] = system: isolated forebrain mitochondria; experiment: ATP production of isolated mitochondria (luciferase-based kinetic assay); assay type: biochemical, mouse; conditions: for ATP production kinetics, amplitude of single exponential fit: 12 μM, starting 20 min after addition, DMSO 22498±358; for ATP production of isolated mitochondria (direct effect): 12.5 μM, within the 45-min measurement period, vs DMSO
Procedure: Isolation of mitochondria. For the ATP synthesis experiments of FIG. 6, forebrains from P0 pups were dissected as described above. 2×10^7 cells were harvested for high-purity mitochondrial isolation using the Qiagen QProteome kit. The mitochondrial pellet was resuspended in 500 μl mitochondria storage buffer (provided by kit) and kept on ice until further use.
ATP production of isolated forebrain mitochondria of P0 pups was measured by ATP Determination Kit (Molecular Probes). […] The reactions were initiated by the addition of 1 mM ADP (deprived of ATP contamination by adding 3 U/ml hexokinase to 10 mM of ADP in 50 mM Tris-HCl, 20 mM MgCl2 and 22 mM glucose, incubating the solution at 37° C. for 1 hr and heat inactivating the hexokinase at 100° C. for 3 min). Luminescence was recorded every 15-30 sec for 1 hr at 580±40 nm.

primary neurons [5] = conditions: for protection from peroxide (PO) induced mitochondrial fragmentation: 75 μM peroxide, 12.5 μM compound, 48 h
primary neurons [6] = experiment: Mitochondrial morphology and neurite area after functional modulators; assay type: cell-based, mouse; set-up: key to Neurite Area: non-significant (n.s.); conditions: significant change
Procedure: Mitochondrial morphology and neurite area measurements. Mitochondrial morphology and neurite area were quantified using methods described by Varkuti et al, 2020. Briefly, Cre-dependent mitochondrial targeted GFP2 (mito-GFP) ROSA26 knock-in mice were crossed with Ai14 (007908, The Jackson Laboratory) expressing cytosolic-tdTomato, and the forebrain of P0 pups were isolated and primary neurons were cultured as described above. AAV9 virus containing the iCRE sequence driven by the neuron specific CaMKII promoter was added to the cell culture at plating and 75% of the media replaced 4 h after plating. […] Z-projected images of the green channel were preprocessed (background subtraction: rolling ball, radius=3; median filtering: radius=1) and somatic mitochondria were removed (see details in Varkuti et al, Science Advances 6 (2020) eaaw8702). Red channel images were also preprocessed (tubeness filter, soma removal). Preprocessed images were segmented by GE Developer software (object-based, kernel size: 3). […] The length and circularity measurements for mitochondria were aggregated using the median and the area for neurites using the sum. After removing empty fields and outlier values from the fields, aggregated field values were averaged to well values (4 fields/well, 12 wells/compound). Robust Z-scores were calculated using DMSO-treated wells for each well ((mediancompound−medianDMSO)/median absolute deviationDMSO), well values were averaged for each compound.
A high-content assay was developed in parallel to monitor aspects of mitochondrial dynamics in primary cultured neurons that conditionally express (Cre recombinase dependent) mitochondrial-tagged GFP and cytosolic tdTomato reporters (Varkuti et al., 2020). We monitored two aspects of neuritic mitochondrial dynamics: (1) the health of mitochondria as measured by the average circularity of axonal mitochondria, since defective mitochondria targeted for mitophagy become circular in shape, and (2) the balance between fission/fusion measured by the average length of dendritic mitochondria. […] FIG. 19A illustrates the results of surveying a collection of functional modulators selected from 5 different structural clusters (FIG. 17), quantified as robust z-scores relative to DMSO-treated control neurons.

[7] = system: primary forebrain neurons; conditions: 48 h; for death among neurons compared to control: Aβ(1-42) 10 μM; for live:dead cell ratio in the presence of toxic concentrations of glutamate: 25 μM glutamate
[8] = read-out: Health (Ax Mt Circularity) EC50
[9] = read-out: Mt Content (Dend Mt CA) EC50
[10] = read-out: Sprouting (Neurite Area) EC50
[11] = peroxide 75 μM, glutamate 25 μM

Molecule | Dendritic Mt CA [1] | Neurite Area [1] | Emax (primary neurons [2]) | EC50 (primary neurons [2]) | TMRM Primary (primary neurons [2]; 12.5 μM) | TMRM Rescreen (primary neurons [2]) | ATP (primary neurons [3]) | EC50 (primary neurons [3]) | Emax (primary neurons [3]) | ATP production kinetics, amplitude of single exponential fit [4] | further results
COc1ccccc1N1CCN(CC(O)COc2cccc3ccccc23)CC1 (centres unmarked) [NAFTOPIDIL] | 4.86 robust Z-scores | 2.41 robust Z-scores | 18.8% | 2.24 µM | 3.64 Z-scores | 9.07 Z-scores | 3.62 Z-scores | 230 nM | 15% | 49917±838 | EC50 [1, 8]: 200 nM; EC50 [1, 9]: 100 nM; EC50 [1, 10]: 500 nM; ATP production of isolated mitochondria (direct effect) [4]: significantly increased; protection from peroxide (PO) induced mitochondrial fragmentation (primary neurons [5]): fully protected
Aβ(1-40): less-toxic oligomeric amyloid-β peptide used as control | – | – | – | – | – | – | – | – | – | – | mitochondrial fragmentation caused by oligomeric peptide (primary neurons [5]): failed to cause mitochondrial fragmentation
N#CC(C#N)=NNc1ccc(OC(F)(F)F)cc1 [FCCP, carbonyl cyanide-p-trifluoromethoxyphenylhydrazone] | – | – | – | – | – | – | – | – | – | 17958±216 | average area of axonal mitochondria [1]: 0.39 μm^2; average area of dendritic mitochondria [1]: 1.06 μm^2; average well axonal mitochondrial CA [1]: 629±83 μm^2; average well dendritic mitochondrial CA [1]: 123±44 μm^2; increase in axonal mitochondrial CA [1]: 225 μm^2; median axonal mitochondrial circularity [1]: 0.94±0.004; median dendritic mitochondrial length [1]: 2.77±0.07 μm; number of axonal mitochondria [1]: 51767; number of dendritic mitochondria [1]: 3713; sum of dendritic and axonal mitochondrial CA [1]: 754 μm^2; reduction in the average dendritic mitochondrial CA per well ([1]; FCCP treatment vs DMSO): ~90%
Cc1ccc(-c2cc(C(F)(F)F)nn2-c2ccc(S(N)(=O)=O)cc2)cc1 [celecoxib] | – | – | 27.5% | 5.18 µM | 6.67 Z-scores | 4.72 Z-scores | 7.57 Z-scores | 490 nM | 20.7% | – | hit in TMRM primary screen when assayed at 4 h (primary neurons [2]; 12.5 μM, 4 h): celecoxib*; Neurite Area (primary neurons [6]): n.s.
CCCCOc1cc(C(=O)OCCN(CC)CC)ccc1N [benoxinate hydrochloride] | – | – | 21% | 0.49 µM | 3.62 Z-scores | 6.64 Z-scores | 5.57 Z-scores | 80 nM | 21.4% | – | Mitochondrial Morphology (primary neurons [6]): elongated; Neurite Area (primary neurons [6]): n.s.
CCCCCCOc1ccccc1C(N)=O [EXALAMIDE] | 2.43 robust Z-scores | 3.42 robust Z-scores | – | – | 3.39 Z-scores | 4.57 Z-scores | 6.10 Z-scores | – | – | – | –
N[C@@H](CCC(=O)O)C(=O)[O-].[Na+] [glutamate, monosodium glutamate] | – | – | – | – | – | – | – | – | – | – | death among neurons compared to control [7, 11]: 42%; live cell ratio (live cells/live+dead cells) ([7]; peroxide 75 μM, glutamate 25 μM, control 0.57): 0.26
O=C(/C=C/c1ccccc1)c1ccc(O)cc1 [4′-HYDROXYCHALCONE] | 5.11 robust Z-scores | 2.21 robust Z-scores | – | – | – | – | – | – | – | 6121±99 | EC50 ([1]; read-out: Elongation (Dend Mt length) EC50): 2300 nM; EC50 [1, 8]: 5800 nM; EC50 [1, 9]: 4800 nM; EC50 [1, 10]: 900 nM; ATP production of isolated mitochondria (direct effect) [4]: decreased; protection from peroxide (PO) induced mitochondrial fragmentation (primary neurons [5]): fully protected; live:dead cell ratio in the presence of toxic concentrations of glutamate [7]: offered protection
OC(CCN1CCCCC1)(c1ccccc1)c1ccccc1 [PRIDINOL METHANESULFONATE] | 2.86 robust Z-scores | 1.80 robust Z-scores | 20.6% | 3.9 µM | 5.88 Z-scores | 6.92 Z-scores | 5.46 Z-scores | 1650 nM | 15.7% | – | –
O=C(/C=C/c1ccccc1)c1ccc(O)cc1O [2′,4′-DIHYDROXYCHALCONE] | 3.39 robust Z-scores | 0.42 robust Z-scores | – | – | – | – | – | – | – | 9853±132 | EC50 [1, 8]: 6700 nM; EC50 [1, 10]: > 25000 nM; ATP production of isolated mitochondria (direct effect) [4]: decreased; live:dead cell ratio in the presence of toxic concentrations of glutamate [7]: offered protection
Aβ(1-42): toxic amyloid-β peptide fragment, oligomeric, HFIP-treated peptide (BACHEM) | – | – | – | – | – | – | – | – | – | – | death among neurons compared to control [7, 11]: no detectable death
